Laboratory results taken from ChEMBL document CHEMBL1201862, “PubChem BioAssay data set” (2004).
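Step 1: Grow cells in 96-well plates. Step 2: Expose to compound for 48 hours at 5 concentrations. Step 3: Interpolate endpoints linearly; if unreached, use highest concentration. GI50 is the concentration that inhibits growth by half.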 Active and inactive are the calls of the source. No stated cut-off is given here; in the data, active = GI50 up to about 1.1 µM and inactive = higher.

What was measured:
Assay in all cases: growth of human tumour cells (NCI), 48 h
CCRF-CEM = tested on: CCRF-CEM
SN12C = tested on: SN12C
MCF7 = tested on: MCF7
K562 = tested on: K562
SF-295 = tested on: SF-295
LOX IMVI = tested on: LOX IMVI
ACHN = tested on: ACHN
MOLT-4 = tested on: MOLT-4
SK-OV-3 = tested on: SK-OV-3
CAKI-1 = tested on: CAKI-1
TK-10 = tested on: TK-10
OVCAR-5 = tested on: OVCAR-5
NCI-H460 = tested on: NCI-H460
SNB-19 = tested on: SNB-19
UO-31 = tested on: UO-31
COLO 205 = tested on: COLO 205
SNB-75 = tested on: SNB-75
KM12 = tested on: KM12
BT-549 = tested on: BT-549
786-0 = tested on: 786-0

Measured: GI50

N#C[BH2-][n+]1cn(C2CC(OP(=O)(O)OCC3OC(n4cnc5c(=O)[nH]c(N)nc54)CC3O)C(CO)O2)c2nc(N)[nH]c(=O)c21 (stereo not given)
inactive: CCRF-CEM 37.8 µM | SN12C > 100 µM | MCF7 62.8 µM | K562 55.5 µM | SF-295 74.3 µM | LOX IMVI 55.5 µM | ACHN > 100 µM | MOLT-4 81.8 µM | SK-OV-3 > 100 µM | CAKI-1 > 100 µM | TK-10 > 100 µM | OVCAR-5 > 100 µM | NCI-H460 > 100 µM | SNB-19 > 100 µM | UO-31 > 100 µM | COLO 205 > 100 µM | SNB-75 > 100 µM | KM12 > 100 µM | BT-549 > 100 µM | 786-0 > 100 µM

COC1(CC[C@@H](C)COC2OC(CO)C(O)C(O)C2O)O[C@H]2C[C@H]3[C@@H]4CC=C5C[C@@H](OC6OC(CO)C(O)C(OC7OC(CO)C(O)C(O)C7O)C6OC6OC(C)C(O)C(O)C6O)CC[C@]5(C)[C@H]4CC[C@]3(C)[C@H]2[C@@H]1C (stereo not given in full)
inactive: CCRF-CEM 28.6 µM | SN12C 10.2 µM | MCF7 16 µM | K562 > 20.6 µM | SF-295 3.48 µM | LOX IMVI 2.8 µM | ACHN 14.5 µM | MOLT-4 16 µM | SK-OV-3 4.01 µM | CAKI-1 6.35 µM | TK-10 19.3 µM | OVCAR-5 7.67 µM | NCI-H460 3.4 µM | SNB-19 6.37 µM | UO-31 4.5 µM | COLO 205 9.04 µM | SNB-75 3.33 µM | KM12 2.08 µM | BT-549 16.5 µM | 786-0 2.75 µM
